Tests used:
[1] = tested on: human epithelial cell line expressing the CFTR-ΔF508 mutation; settings: cells having the CFTR-ΔF508 mutation; cited from earlier work
CFTR-ΔF508 NBF-1 = CFTR-ΔF508 NBF-1 (Homo sapiens, UniProt P13569, DEL508-508); settings: cited from earlier work
[2] = Mutagenicity and adverse side effects of oral doses in animal model systems; type: in vivo; settings: oral doses to rat, guinea pig, mouse or dog model systems
[3] = CPX absorption profile in rats, water vs corn oil formulation, single oral gavage; type: in vivo; settings: rat, 1.4 mg/kg single oral gavage, during the course of the experiment
Description: Experimental—This study was designed to determine the pharmacokinetics of CPX bioavailability in blood plasma following a single oral administration by oral gavage to male Sprague-Dawley rats. The CPX compound was suspended in either a corn oil or water formulation and administered once via oral gavage at 10 ml/kg of rat weight to two groups of male Sprague-Dawley rats.
The rats were not fasted prior to blood collection. Approximately 0.4 ml of whole blood was collected from each animal into heparinized tubes via puncture of the orbital sinus under 70% CO2/30% O2 anesthesia. Approximately 0.2 ml of plasma was separated by centrifugation and analyzed for CPX concentration using high performance liquid chromatography (HPLC) with mass spectrometric detection. Following the completion of blood collection, all surviving animals were euthanized by carbon dioxide overdose.
Rat plasma CPX concentration as a function of time (in hours) using the two formulations was measured. Each rat in this experiment (n=10) received a 1.4 mg/kg CPX dose, which was equivalent to a 100 mg dose. Ten rats were used at each time point to generate a mean CPX concentration value.

NBF-1 region of CFTR = NBF-1 region of CFTR (Homo sapiens, UniProt P13569); settings: cited from earlier work
CFTR-ΔF508 = CFTR-ΔF508 (Homo sapiens, UniProt P13569, DEL508-508); settings: cited from earlier work
[4] = Adverse side effects of oral doses in human subjects; type: in vivo; settings: oral doses to human subjects
[5] = CPX absorption profiles of four suspension formulations in dogs, single oral dose; type: in vivo, male Beagle dogs; settings: dog, 30 mg/kg oral
Description: Experimental—This study was designed to determine the relative bioavailability of a single oral CPX dose when administered by gavage to male Beagle dogs. The CPX dosages was administered in a single 30 mg/kg oral dose in four different suspension formulations. These suspension formulations were: • 1) xanthan gum (homogenized), • 2) sodium carboxymethylcellulose [NaCMC] (homogenized), • 3) sodium carboxymethylcellulose [NaCMC] (non-homogenized), and • 4) corn oil (homogenized).
Each formulation contained CPX at a nominal concentration of 60 mg/gram of suspension. […]
Whole blood samples were collected (approx. 3 ml/sample) by jugular venipuncture into sodium heparin-containing collection tubes. […] The whole blood was centrifuged to isolate plasma, and concentrations of CPX in the plasma at these time intervals were determined using high performance liquid chromatography (HPLC) with mass spectrometric detection, with a lower quantitation limit of 1 ng/ml.
The following pharmacokinetic parameters were determined for each experimental CPX formulation: • Cmax—maximum analyte concentration in the plasma, ng/ml • Tmax—time of maximum analyte concentration in the plasma • T1/2—terminal half-life of the drug • AUClast—area under the curve (AUC) from time 0 to the last measurable concentration. […] Expressed as ng·h/ml AUC(0∞)—area under the curve from time 0 to infinity (also written AUCinf or AUC∞)

[6] = Solubility of CPX in solvents tested; type: physicochemical; settings: any of the solvents tested, despite use of co-solvents
Source text: This EXAMPLE describes the CPX formulations used in the present invention. Adequate solubility of CPX was unattainable in any of the solvents tested, even despite the use of co-solvents. This insolubility necessitated the use of the suspension and capsule formulations, as described below. One formulation was left non-homogenized to study the effect of homogenization on bioavailability.

[7] = tested on: cell derived from a cystic fibrosis patient; settings: cited from earlier work
A1 adenosine receptor = molecular target: T1, A1 adenosine receptor (Homo sapiens, UniProt P30542); settings: cited from earlier work
T1 sequence (P30542 1-326): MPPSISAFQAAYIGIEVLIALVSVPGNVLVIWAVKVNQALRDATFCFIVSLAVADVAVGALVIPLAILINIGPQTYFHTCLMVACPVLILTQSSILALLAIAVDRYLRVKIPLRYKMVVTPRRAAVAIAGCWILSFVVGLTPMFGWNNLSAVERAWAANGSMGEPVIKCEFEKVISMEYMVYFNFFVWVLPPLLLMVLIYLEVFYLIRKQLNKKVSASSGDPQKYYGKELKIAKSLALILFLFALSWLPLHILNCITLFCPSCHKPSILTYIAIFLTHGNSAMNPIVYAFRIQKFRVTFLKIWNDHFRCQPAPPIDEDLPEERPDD

isolated CFTR channels = isolated CFTR channels (Homo sapiens, UniProt P13569); settings: in vitro lipid bilayers; cited from earlier work
isolated CFTR channels, sequence (P13569 whole entry): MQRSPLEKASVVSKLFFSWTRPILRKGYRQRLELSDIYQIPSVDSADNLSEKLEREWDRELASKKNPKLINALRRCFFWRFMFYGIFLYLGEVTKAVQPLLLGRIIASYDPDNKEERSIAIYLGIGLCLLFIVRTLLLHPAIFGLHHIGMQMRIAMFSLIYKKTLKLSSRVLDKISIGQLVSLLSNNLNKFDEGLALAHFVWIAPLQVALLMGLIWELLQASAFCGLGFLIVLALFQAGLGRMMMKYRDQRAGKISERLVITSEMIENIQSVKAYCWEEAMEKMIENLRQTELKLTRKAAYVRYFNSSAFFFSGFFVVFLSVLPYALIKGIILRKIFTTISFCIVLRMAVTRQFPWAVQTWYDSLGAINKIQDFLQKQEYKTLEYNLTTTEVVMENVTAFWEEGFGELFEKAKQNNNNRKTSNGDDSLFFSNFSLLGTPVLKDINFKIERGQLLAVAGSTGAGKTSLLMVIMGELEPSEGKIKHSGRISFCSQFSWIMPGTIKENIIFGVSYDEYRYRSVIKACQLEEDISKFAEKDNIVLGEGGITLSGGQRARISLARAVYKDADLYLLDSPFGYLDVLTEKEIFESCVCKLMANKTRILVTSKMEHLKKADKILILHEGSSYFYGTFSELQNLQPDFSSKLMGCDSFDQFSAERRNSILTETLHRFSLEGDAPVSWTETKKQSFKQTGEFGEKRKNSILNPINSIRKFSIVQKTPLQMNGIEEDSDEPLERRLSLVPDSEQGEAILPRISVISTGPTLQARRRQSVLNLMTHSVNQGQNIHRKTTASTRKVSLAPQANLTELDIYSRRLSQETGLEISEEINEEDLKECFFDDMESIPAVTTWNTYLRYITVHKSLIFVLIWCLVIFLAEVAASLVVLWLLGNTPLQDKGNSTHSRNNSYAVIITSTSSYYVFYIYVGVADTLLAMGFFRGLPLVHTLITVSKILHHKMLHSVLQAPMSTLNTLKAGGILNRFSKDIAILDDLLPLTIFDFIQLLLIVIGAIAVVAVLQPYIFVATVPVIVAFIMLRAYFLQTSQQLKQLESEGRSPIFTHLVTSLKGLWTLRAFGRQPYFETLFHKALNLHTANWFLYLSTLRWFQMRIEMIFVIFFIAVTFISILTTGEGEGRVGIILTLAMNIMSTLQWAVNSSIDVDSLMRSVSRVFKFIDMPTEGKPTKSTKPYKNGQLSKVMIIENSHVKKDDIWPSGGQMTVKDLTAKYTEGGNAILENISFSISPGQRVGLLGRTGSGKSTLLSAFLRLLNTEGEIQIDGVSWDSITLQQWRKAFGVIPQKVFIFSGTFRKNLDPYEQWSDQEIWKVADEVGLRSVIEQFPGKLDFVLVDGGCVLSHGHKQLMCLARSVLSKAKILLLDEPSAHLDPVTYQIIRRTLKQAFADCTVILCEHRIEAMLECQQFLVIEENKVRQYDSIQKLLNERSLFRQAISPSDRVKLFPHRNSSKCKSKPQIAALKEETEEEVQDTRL

CFTR-ΔF508, sequence (P13569 with tags, fused parts or gaps DEL508-508): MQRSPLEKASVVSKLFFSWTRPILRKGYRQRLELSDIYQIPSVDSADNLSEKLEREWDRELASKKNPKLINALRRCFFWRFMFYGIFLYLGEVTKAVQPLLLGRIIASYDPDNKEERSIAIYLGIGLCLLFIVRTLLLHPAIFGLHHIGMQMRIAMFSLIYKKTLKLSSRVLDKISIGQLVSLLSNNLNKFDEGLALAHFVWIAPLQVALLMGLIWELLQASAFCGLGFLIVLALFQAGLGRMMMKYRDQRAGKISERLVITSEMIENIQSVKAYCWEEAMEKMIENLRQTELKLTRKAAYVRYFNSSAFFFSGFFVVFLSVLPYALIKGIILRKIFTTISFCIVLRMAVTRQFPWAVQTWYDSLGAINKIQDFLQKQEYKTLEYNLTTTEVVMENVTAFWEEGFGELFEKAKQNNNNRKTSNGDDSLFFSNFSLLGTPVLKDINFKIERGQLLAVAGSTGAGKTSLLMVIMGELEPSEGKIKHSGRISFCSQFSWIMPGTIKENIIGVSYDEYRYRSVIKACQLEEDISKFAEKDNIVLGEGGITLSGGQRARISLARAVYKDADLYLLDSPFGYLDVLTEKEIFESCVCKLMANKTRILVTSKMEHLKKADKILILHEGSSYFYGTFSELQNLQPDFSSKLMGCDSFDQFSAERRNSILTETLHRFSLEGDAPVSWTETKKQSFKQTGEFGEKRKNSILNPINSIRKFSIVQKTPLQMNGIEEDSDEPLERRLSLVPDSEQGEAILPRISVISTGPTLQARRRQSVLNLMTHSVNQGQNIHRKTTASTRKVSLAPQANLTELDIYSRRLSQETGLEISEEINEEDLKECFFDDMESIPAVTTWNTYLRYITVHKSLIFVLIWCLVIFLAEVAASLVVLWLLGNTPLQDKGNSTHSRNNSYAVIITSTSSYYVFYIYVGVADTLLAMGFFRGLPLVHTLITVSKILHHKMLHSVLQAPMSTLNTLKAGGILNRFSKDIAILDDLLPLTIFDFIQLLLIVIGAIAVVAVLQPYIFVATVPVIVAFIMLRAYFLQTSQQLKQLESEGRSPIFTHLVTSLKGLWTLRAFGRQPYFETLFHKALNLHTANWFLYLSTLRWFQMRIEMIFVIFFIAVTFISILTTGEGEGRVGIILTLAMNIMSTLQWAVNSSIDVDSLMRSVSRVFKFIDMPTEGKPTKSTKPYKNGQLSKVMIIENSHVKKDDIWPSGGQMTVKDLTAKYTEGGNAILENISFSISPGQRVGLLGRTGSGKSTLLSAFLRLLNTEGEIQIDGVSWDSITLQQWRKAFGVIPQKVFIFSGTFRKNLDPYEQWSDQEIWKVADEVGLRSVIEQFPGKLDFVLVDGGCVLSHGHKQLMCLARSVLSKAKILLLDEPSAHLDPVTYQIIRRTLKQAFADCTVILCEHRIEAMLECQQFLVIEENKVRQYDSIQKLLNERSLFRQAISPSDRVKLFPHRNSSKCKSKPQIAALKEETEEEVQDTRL
NBF-1 region of CFTR, sequence (P13569 423-646 limits assumed): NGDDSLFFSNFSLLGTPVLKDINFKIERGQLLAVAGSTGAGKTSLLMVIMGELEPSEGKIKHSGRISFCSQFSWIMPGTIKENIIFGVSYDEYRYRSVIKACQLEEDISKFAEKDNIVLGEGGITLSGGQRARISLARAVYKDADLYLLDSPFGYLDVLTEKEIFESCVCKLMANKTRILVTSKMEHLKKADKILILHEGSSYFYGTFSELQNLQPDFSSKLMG
CFTR-ΔF508 NBF-1, sequence (P13569 with tags, fused parts or gaps DEL508-508 limits assumed): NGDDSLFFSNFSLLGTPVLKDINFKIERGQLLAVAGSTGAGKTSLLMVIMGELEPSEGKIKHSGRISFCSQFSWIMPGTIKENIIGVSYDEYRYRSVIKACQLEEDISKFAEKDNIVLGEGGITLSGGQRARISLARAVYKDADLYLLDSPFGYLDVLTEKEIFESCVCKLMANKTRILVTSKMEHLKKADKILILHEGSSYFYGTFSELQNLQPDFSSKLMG

For `CCCn1c(=O)c2[nH]c(-c3ccc(OCC(=O)NCCN)cc3)nc2n(CCC)c1=O` [xanthine amino congener], the chloride efflux [1] is listed as “activating chloride ion efflux”.

In the case of `C=CCn1c(=O)c2[nH]c(C3CCCCC3)nc2n(CC=C)c1=O` [DAX, N,N-diallylcyclohexylxanthine], the chloride efflux [1] is listed as “activating chloride ion efflux”.

For “1,3-dipropyl-7-methylcyclopenthylxanthine [DP-CPX]”, the chloride efflux [1] is listed as “activating chloride ion efflux”.

For `Cn1c(=O)c2c(nc(C3CCCCC3)n2C)n(C)c1=O` [CHC, cyclohexylcaffeine], the chloride efflux [1] is given as “activating chloride ion efflux”.

For `CCCn1c(=O)c2[nH]c(C3CCCC3)nc2n(CCC)c1=O` [CPX, 1,3-dipropyl-8-cyclopentylxanthine], the “affinity for CFTR-ΔF508 NBF-1 versus wild-type CFTR NBF-1” value (CFTR-ΔF508 NBF-1) is given as “greater”, the “mutagenicity or grossly apparent adverse side effects” value [2] is given as “does not appear to display any mutagenicity or grossly apparent adverse side effects” and the “mortality or signs of morbidity” value [3] is given as “no mortality or signs of morbidity”. The “binding to the NBF-1 region of CFTR” value (NBF-1 region of CFTR) was “binds”, the “intracellular trafficking and maturation of CFTR-ΔF508” value (CFTR-ΔF508) was “enhances” and the “apparent adverse side effects” value [4] was “no apparent adverse side effects”. The “time of measured peak concentrations of CPX in the plasma after oral dosing” value [5] was ≤ 5 h, the chloride efflux [1] was “promotes chloride efflux” and the adequate solubility [6] was “unattainable”. The chloride efflux [7] was “activates”, the “A1 adenosine receptor antagonism” value (A1 adenosine receptor) was “potent” and the “activation of isolated CFTR channels” value (isolated CFTR channels) was “activates”.

Source: patent publication US20060052404A1, “Pharmaceutical formulations comprising substituted xanthine compounds” (priority 2001, published 2006)
